Results: patent publication US20190091163A1, “NANO-SIZED DRUG DELIVERY STRUCTURE” (INSTITUT NATIONAL DE LA SANTE ET DE LA RECHERCHE MEDICALE …, priority 2016, published 2019)

Legend:
SKBR3 cells [1] = test: Uptake mechanism of GO nanodrug structures with endocytosis inhibitors (flow cytometry); format: cell-based, human; conditions: 1 hour pre-incubation with inhibitor, 15 mins with nanoparticles, FIG. 10
Description: The uptake mechanism of the GO nanodrug structures was then investigated using various endocytosis inhibitors in comparison with the graphene oxide drug metamaterial described here-above, free of any drug active (GO control).
Different endocytosis inhibitors were tested: • Cytochalasin D, an inhibitor of macropinocytosis-dependent endocytosis in a dosage of 10, 5 and 1 (μM); • Genistein, an inhibitor of caveolae-mediated endocytosis in a dosage of 100, 30 and 25 (μM); and • Chlorpromazine (CMZ), an inhibitor of clathrin-mediated endocytosisin a dosage of 5, 1 and 0.5 (μM).
Cellular internalization of each nanostructure was followed as described here-after.
SKBR3 cells were seeded to a density of 1.0×10^5 cells per well in a 12-well plates followed by an overnight incubation. The cells were rinsed with PBS and pre-incubated with different concentrations of the appropriate endocytic inhibitor in serum-free RPMI 1640 media, for 1 hour. The media was then replaced with the same concentration of inhibitors in serum-containing RPMI 1640 media, the nanoparticles were added and cells were incubated for 15 mins. Following incubation, the medium was removed and cells were rinsed several times with cold PBS. The cells were collected with trypsin EDTA and analyzed using flow cytometry analysis.

SKBR3 cells [2] = test: Uptake efficiency of GO-HER2 antibody nanodrug structures after preincubation with Lapatinib; format: cell-based, human; conditions: SKBR3 cells preincubated with Lapatinib; FIG. 11
Description: Abscissa: amount of Lapatinib (μM). Ordinate: uptake efficiency (%).
Lapatinib is a known HER2 tyrosine kinase inhibitor, which induces stabilization and accumulation of HER2.

[3] = tested on: MDA-MB-231 (human breast basal epithelial cancer cells); conditions: MDA-MB-231 cells, different concentrations of the peptide; Kawamoto et al. 2013; cited from earlier work

Compound	inhibition of internalization (cellular uptake) of GO nanodrug structures (SKBR3 cells [1])	further results
CN(C)CCCN1c2ccccc2Sc2ccc(Cl)cc21 [Chlorpromazine]	did not show any notable inhibition	
C=C1[C@@H](C)[C@H]2[C@H](Cc3ccccc3)NC(=O)[C@]23[C@H](OC(C)=O)/C=C/[C@@](C)(O)C(=O)[C@@H](C)C/C=C/[C@H]3[C@@H]1O [Cytochalasin D]	significantly inhibited the internalization	
O=c1c(-c2ccc(O)cc2)coc2cc(O)cc(O)c12 [Genistein]	did not show any notable inhibition	
CS(=O)(=O)CCNCc1ccc(-c2ccc3ncnc(Nc4ccc(OCc5cccc(F)c5)c(Cl)c4)c3c2)o1 [Lapatinib]		effect on uptake efficiency of GO-HER2 antibody nanodrug structures (SKBR3 cells [2]): dose-dependent reduction in intake
KLLLKLLKKLLKLLKKK (anti-cancer cationic lytic peptide) [cationic lytic anti-cancer peptide, disintegrates the cell membrane]		effect on cell proliferation [3]: dose-dependent reduction in cell proliferation
